Data on five compounds can be found in ChEMBL document CHEMBL4270488, “Antibacterial Compounds from Marine Bacteria, 2010-2015” (J Nat Prod, 2017).

Values after ≈ are worked out from the molar mass of the structure shown. Where a SMILES comes first, the peptide text is derived from it. Bridges are numbered along the chain shown (N, C = ends). [ ]: non-standard residue; d: D form. The star is where a group is joined. ξ: configuration not given here. NMeLeu(3ξ-Me) = CN[C@H](C(=O)O)C(C)C(C)C; d(cisHyp) = O=C(O)[C@H]1C[C@@H](O)CN1; Picolinoyl(3-OH) = O=C(c1ncccc1O)*; NMePhg = CN[C@H](C(=O)O)c1ccccc1; Sar = CNCC(=O)O Where only a bound is given, the exact number is not on record here.

Experiment [1] has as its system Escherichia coli. Description: Antibacterial activity against Escherichia coli by CLSI method. Type of experiment: functional.
For experiment [2], the system named is Clostridioides difficile. Description: Antibacterial activity against Clostridioides difficile BI/NAP1/O27 by agar dilution method. Type of experiment: functional.
Experiment [3] deals with Moraxella catarrhalis. Kind of experiment: Antibacterial activity against Moraxella catarrhalis ATCC 25238 by CLSI method. Type of experiment: functional.
The test system of experiment [4] is Pseudomonas aeruginosa. Description: Antibacterial activity against Pseudomonas aeruginosa ATCC 27853 by CLSI method. Type of experiment: functional.
Experiment [5] concerns Enterococcus. Description: Antibacterial activity against Enterococcus VRE-CUS by CLSI method. Type of experiment: functional.
Experiment [6] concerns Enterococcus. Description: Antibacterial activity against Enterococcus VRE-WMC by CLSI method. In kind it is functional.
The test system of experiment [7] is Staphylococcus aureus. Kind of experiment: Antibacterial activity against methicillin-resistant Staphylococcus aureus by CLSI method. Type of experiment: functional.
Experiment [8] deals with Enterococcus faecalis. Kind of experiment: Antibacterial activity against Enterococcus faecalis ATCC 29212 by microplate assay. Type of experiment: functional.
Experiment [9] concerns Bacillus anthracis. Kind of experiment: Antibacterial activity against Bacillus anthracis UM23C1-1 by microplate assay. Type of experiment: functional.
Experiment [10] relates to Streptococcus pneumoniae. Kind of experiment: Antibacterial activity against Streptococcus pneumoniae ATCC 51916 by microplate assay. In kind it is functional.
Experiment [11] relates to Moraxella catarrhalis. Description: Antibacterial activity against Moraxella catarrhalis. Type of experiment: functional.
Experiment [12] relates to Staphylococcus aureus. Kind of experiment: Antibacterial activity against methicillin-resistant Staphylococcus aureus infected in CD1 mouse assessed as mouse survival rate at 10 mg/kg. In kind it is functional.
For experiment [13], the system named is Staphylococcus aureus. Kind of experiment: Antibacterial activity against Staphylococcus aureus ATCC 13709 by microplate assay. In kind it is functional.
Experiment [14] relates to Staphylococcus aureus. Description: Antibacterial activity against methicillin-sensitive Staphylococcus aureus. In kind it is functional.
For experiment [15], the system named is Haemophilus influenzae. Kind of experiment: Antibacterial activity against Haemophilus influenzae ATCC 49247 by broth microdilution assay. In kind it is functional.
Experiment [16] can be described thus: Inhibition of Escherichia coli RNA polymerase.
Experiment [17] has as its system Enterococcus faecalis. Description: Antibacterial activity against Enterococcus faecalis ATCC 19433 by broth microdilution assay. In kind it is functional.
Experiment [18] deals with Escherichia coli. Kind of experiment: Antibacterial activity against Escherichia coli D21f2tolC by broth microdilution assay. In kind it is functional.
Experiment [19] is described as follows: Inhibition of Staphylococcus aureus RNA polymerase.
For experiment [20], the system named is Staphylococcus aureus. Kind of experiment: Antibacterial activity against hospital associated methicillin-resistant Staphylococcus aureus incubated for 18 to 20 hrs by microbroth dilution method. In kind it is functional.
Experiment [21] concerns Staphylococcus aureus. Description: Antibacterial activity against community associated methicillin-resistant Staphylococcus aureus incubated for 18 to 20 hrs by microbroth dilution method. In kind it is functional.
Experiment [22] relates to Enterococcus faecalis. Description: Antibacterial activity against Enterococcus faecalis incubated for 18 to 20 hrs by microbroth dilution method. Type of experiment: functional.
Experiment [23] concerns Streptococcus pyogenes. Kind of experiment: Antibacterial activity against Streptococcus pyogenes incubated for 18 to 20 hrs by microbroth dilution method. In kind it is functional.
Experiment [24] concerns Streptococcus agalactiae. Kind of experiment: Antibacterial activity against Streptococcus agalactiae incubated for 18 to 20 hrs by microbroth dilution method. Type of experiment: functional.
Experiment [25] has as its system Moraxella catarrhalis. Kind of experiment: Antibacterial activity against Moraxella catarrhalis incubated for 18 to 20 hrs by microbroth dilution method. In kind it is functional.
In experiment [26] the test system is Haemophilus influenzae. Description: Antibacterial activity against Haemophilus influenzae incubated for 18 to 20 hrs by microbroth dilution method. In kind it is functional.
Experiment [27] has as its system Staphylococcus aureus. Description: Antibacterial activity against Staphylococcus aureus […]. Type of experiment: functional.
The subject of experiment [28] is Staphylococcus aureus. Description: Antibacterial activity against methicillin-resistant Staphylococcus aureus ATCC 43300. Type of experiment: functional.

With `C=C(NC(=O)c1csc(-c2nc3c(cc2O)-c2nc(cs2)C(=O)N[C@@H]([C@@H](C)O)C(=O)N/C(=C/C)c2nc(cs2)C(=O)N[C@H]2C[C@H](O)C(=O)OCc4cccc5[nH]c(c(C)c45)C(=O)SC[C@H](NC(=O)c4csc2n4)c2nc-3cs2)n1)C(N)=O`, the MIC in experiment [1] was above 4 µg/mL; in experiment [2], 0.01 µg/mL (≈ 0.00818 µM); in experiment [3], 0.5 µg/mL (≈ 0.409 µM); in [4], above 4 µg/mL; in experiment [5], 0.12 µg/mL (≈ 0.0982 µM); in experiment [6], 0.12 µg/mL (≈ 0.0982 µM). Moreover, in experiment [7], the MIC was 0.03 to 0.25 µg/mL (≈ 0.0245 to 0.205 µM).
Regarding `CC1=CC[C@@H]2[C@H]3/C(O)=C/C(=O)[C@@H](C)C(=O)O[C@H](C)/C=C/C=C\[C@@H](C)[C@H]3C=C[C@H]2C1`, the MIC in experiment [8] is 0.06 to 0.25 µg/mL (≈ 0.151 to 0.63 µM); in [9], 0.03 µg/mL (≈ 0.0757 µM); in experiment [10] it was 0.06 to 0.25 µg/mL (≈ 0.151 to 0.63 µM); in [11] it was 4 µg/mL (≈ 10.1 µM); in experiment [13], 0.06 to 0.25 µg/mL (≈ 0.151 to 0.63 µM); in experiment [14], at most 0.25 µg/mL. Besides, in experiment [12], the survival at 10 mg/kg turned out to be 90%.
Turning to `CC[C@H](C)[C@H]1NC(=O)[C@@H](NC(=O)[C@H](C)[C@H](O)C(C)C)[C@@H](C)OC(=O)[C@H]2NC(=O)[C@@H](C(C)C)NC(=O)[C@@H](Cc3ccccc3)N(C)C(=O)[C@@H](NC1=O)c1ccc(cc1)O[C@H](C)[C@@](O)(CO)/C=C\C(=O)NCC(=O)O2`, the values for the MIC in experiment [15], in [17] and in [18] were 12 µg/mL (≈ 11.7 µM), 12 µg/mL (≈ 11.7 µM) and 0.2 µg/mL (≈ 0.196 µM), respectively. Also, the values for the 50% inhibitory concentration (IC50) in [16] and in experiment [19] were 200 to 2000 nM and 200 to 4000 nM, respectively.
Take `CC(C)C[C@H]1NC(=O)[C@@H](NC(=O)c2ncccc2O)[C@@H](C)OC(=O)[C@H](c2ccccc2)N(C)C(=O)[C@H](C)NC(=O)[C@H](C(C)C(C)C)N(C)C(=O)CN(C)C(=O)[C@H]2C[C@@H](O)CN2C1=O` (stereo partly drawn) [VIRIFOGRISEIN I] ({Picolinoyl(3-OH)}-T[dL][d(cisHyp)][Sar][NMeLeu(3ξ-Me)]A[NMePhg]; ester 1-C): the MIC in experiment [20] was 1 to 2 µg/mL (≈ 1.14 to 2.28 µM); in experiment [21] it was 1 to 2 µg/mL (≈ 1.14 to 2.28 µM); in experiment [22] it was 16 µg/mL (≈ 18.2 µM); in experiment [23], 8 µg/mL (≈ 9.1 µM); in experiment [24] it was 8 µg/mL (≈ 9.1 µM); in [25], 1 µg/mL (≈ 1.14 µM). In experiment [26], this compound gave an MIC of 16 µg/mL (≈ 18.2 µM).
`CCCC1(O)CC(=O)c2c(Cc3cc(=O)cc(O)o3)cccc2O1` (stereo not drawn): the MIC is 16 µg/mL (≈ 48.4 µM) in [27] and 2 µg/mL (≈ 6.05 µM) in [28].
